Results on five molecules are retold here after PubChem BioAssay (NCI).

Some test systems named below: A498 renal; DLD-1 colon; HCT-116 colon; HL-60(TB) leukemia; KM12 colon; KM20L2 colon; NCI-H522 lung; PC-3 prostate; SF-268 CNS; SNB-19 CNS.
What all share (assay): NCI-60 cell line screen, 48 h

Each structure is given as a SMILES string. “And” between values parts separate entries of the source, which are not always exact repeats. Equal values may be shown once.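 Where inhibition never reached the appropriate level, the endpoint shown equals the highest concentration tested. Otherwise, values were interpolated linearly from a five-concentration, 48-hour dose response in 96-well plates. GI50: concentration for 50% inhibition of growth. TGI denotes the concentration required for complete inhibition of growth.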

Consider `COc1ccc2nc3cc(Cl)ccc3c(Nc3ccccc3-c3ccccc3Nc3c4ccc(Cl)cc4nc4ccc(OC)cc34)c2c1`, for which the TGI was 97.5 µM in the assay with A498 renal; above 47.3 µM in the assay on DLD-1 colon; above 100 µM in the assay on HCT-116 colon; 16.8 µM with HL-60(TB) leukemia; above 100 µM with KM12 colon; above 81.4 µM with KM20L2 colon. Besides, the TGI is 32 µM in the assay on NCI-H522 lung, 63 µM in the assay on PC-3 prostate, above 72.7 µM with SF-268 CNS and above 100 µM in the assay with SNB-19 CNS.

Regarding `CC(=O)CC[N+](C)(C)C`, the TGI is 91.9 µM in the assay with A498 renal; 35.4 µM in the assay with DLD-1 colon; 54.4 µM in the assay with HCT-116 colon; 14 µM in the assay with HL-60(TB) leukemia; above 81.5 µM in the assay on KM12 colon; above 56.6 µM with KM20L2 colon. Moreover, the TGI is 1.96 µM in the assay with NCI-H522 lung, 99.5 µM in the assay with PC-3 prostate, 76.8 µM in the assay with SF-268 CNS and above 36.9 µM in the assay on SNB-19 CNS.

Regarding `CCC/C=C/C=C/C(=O)OC1/C(=C/C(=O)OC)CC2CC(C(C)O)OC(=O)CC(O)CC3CC(OC(C)=O)C(C)(C)C(O)(CC4C/C(=C/C(=O)OC)CC(/C=C/C(C)(C)C1(O)O2)O4)O3` (centres undefined), the GI50 was 7.67 µM and 9.27 µM in the assay with A498 renal; > 10.9 µM and 5.2 µM and > 12.5 µM with HCT-116 colon; 4.61 µM and 1.81 µM and > 12.5 µM in the assay on HL-60(TB) leukemia; > 10.9 µM and 6.75 µM and > 12.5 µM in the assay on KM12 colon; > 10.9 µM and 6.51 µM with KM20L2 colon; above 11 µM with NCI-H522 lung. Also, the GI50 with PC-3 prostate is above 12.5 µM; in the assay on SF-268 CNS it was 6.18 µM and > 12.5 µM; in the assay with SNB-19 CNS, above 11 µM. The TGI with A498 renal was 10.9 µM and 11 µM and > 12.5 µM; in the assay on DLD-1 colon it was > 10.9 µM and 11 µM; in the assay with HCT-116 colon, > 10.9 µM and 11 µM and > 12.5 µM; in the assay on HL-60(TB) leukemia, 10.9 µM and 5.43 µM and > 12.5 µM; in the assay on KM12 colon it was > 10.9 µM and 9.07 µM and > 12.5 µM; in the assay with KM20L2 colon, > 10.9 µM and 11 µM. Further, the TGI in the assay on NCI-H522 lung is above 12.5 µM; in the assay on PC-3 prostate it was 11 µM and > 12.5 µM; in the assay with SF-268 CNS, 9.13 µM and 11 µM and > 12.5 µM; in the assay on SNB-19 CNS it was above 12.5 µM.

With `COc1ccc2[nH]c3c(C)c4c(c(C)c3c2c1)CN(C)C=C4`, the TGI in the assay on A498 renal is 21.3 µM; in the assay on DLD-1 colon, 32.2 µM; with HCT-116 colon it was 22.1 µM; in the assay with HL-60(TB) leukemia, 52.3 µM; in the assay on KM12 colon, 10.6 µM; in the assay on KM20L2 colon, 21.1 µM. Moreover, the TGI amounted to 6.34 µM in the assay with NCI-H522 lung, 81.3 µM with PC-3 prostate, 0.815 µM in the assay with SF-268 CNS and 3.66 µM with SNB-19 CNS.

In the case of `O=C1c2ccccc2C(=O)c2c1ccc1conc21`, the TGI in the assay with A498 renal worked out at 24.3 µM; in the assay on DLD-1 colon, 7.15 µM; in the assay on HCT-116 colon, 3.51 µM; with HL-60(TB) leukemia it was 4.16 µM; in the assay on KM12 colon, 7.45 µM; in the assay on KM20L2 colon, 28.8 µM. The TGI in the assay with NCI-H522 lung came out at 3.44 µM; with PC-3 prostate, 5.06 µM; with SF-268 CNS it was 6.8 µM; in the assay on SNB-19 CNS it was 11.5 µM.
